Laboratory results published in ChEMBL document CHEMBL3259638, “Preliminary investigations into triazole derived androgen receptor antagonists” (Bioorg Med Chem, 2014).
pIC50: −log10 of the molar value.

How the values were obtained:
PC-3 = assay: Cytotoxicity against human PC3 cells assessed growth inhibition; type: functional, cell-based
LNCaP = assay: Cytotoxicity against human LNCAP cells; type: cell-based

Compound	pIC50 (PC-3)	Activity (LNCaP)
CC(C)(O)c1cn(-c2ccc(Cl)c(C(F)(F)F)c2)nn1	4.16	–
CC(C)(O)c1cn(-c2ccc(C#N)c(C(F)(F)F)c2)nn1	–	Toxic
CC(C)(O)c1cn(-c2ccc([N+](=O)[O-])c(C(F)(F)F)c2)nn1	4.20	–
CC(C)(O)c1cn(-c2cc(C(F)(F)F)cc(C(F)(F)F)c2)nn1	4.38	–
